# Literature values, collected in patent US20060159689A1, “Combinations of tumor-associated antigens in diagnostics for various types of cancers” (priority 2004, published 2006).
# Test system: VEGF-A
# Details: colorectal, lung, breast, ovarian carcinoma and other cancers
# VEGF-A, sequence (P15692 207-311 limits assumed): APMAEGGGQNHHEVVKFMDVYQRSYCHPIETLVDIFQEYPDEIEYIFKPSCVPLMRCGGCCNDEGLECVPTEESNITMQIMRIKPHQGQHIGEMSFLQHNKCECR
substance,measurement,value
bevacizumab,effect on tumor progression and metastatic disease,control of tumor progression and metastatic disease
